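Here, GI50 denotes the concentration required for 50% inhibition of growth. The concentration for full growth arrest is given as TGI.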
Assays:
Test in all cases: DTP human tumour cell line panel, 384-well format
786-0 renal = test system: 786-0 renal
CAKI-1 renal = test system: CAKI-1 renal
KM12 colon = test system: KM12 colon
SNB-75 CNS = test system: SNB-75 CNS
HS 578T breast = test system: HS 578T breast
NCI-H322M lung = test system: NCI-H322M lung
SR leukemia = test system: SR leukemia
BT-549 breast = test system: BT-549 breast
UACC-62 melanoma = test system: UACC-62 melanoma
OVCAR-3 ovarian = test system: OVCAR-3 ovarian
CCRF-CEM leukemia = test system: CCRF-CEM leukemia
SF-295 CNS = test system: SF-295 CNS
NCI/ADR-RES ovarian = test system: NCI/ADR-RES ovarian
NCI-H522 lung = test system: NCI-H522 lung
LOX IMVI melanoma = test system: LOX IMVI melanoma
DU-145 prostate = test system: DU-145 prostate
HT29 colon = test system: HT29 colon
NCI-H226 lung = test system: NCI-H226 lung
MCF7 breast = test system: MCF7 breast
MDA-MB-435 melanoma = test system: MDA-MB-435 melanoma
SK-OV-3 ovarian = test system: SK-OV-3 ovarian
SK-MEL-28 melanoma = test system: SK-MEL-28 melanoma
MDA-MB-468 breast = test system: MDA-MB-468 breast
U251 glioblastoma = test system: U251 glioblastoma
HOP-62 NSCLC = test system: HOP-62 NSCLC
K-562 leukemia = test system: K-562 leukemia
PC-3 prostate = test system: PC-3 prostate
EKVX NSCLC = test system: EKVX NSCLC
RPMI-8226 leukemia = test system: RPMI-8226 leukemia
SNB-19 CNS = test system: SNB-19 CNS
HCT-15 colon = test system: HCT-15 colon
SK-MEL-2 melanoma = test system: SK-MEL-2 melanoma
OVCAR-4 ovarian = test system: OVCAR-4 ovarian
HOP-92 NSCLC = test system: HOP-92 NSCLC
RXF 393 renal = test system: RXF 393 renal
SF-539 CNS = test system: SF-539 CNS
SN12C renal = test system: SN12C renal
UACC-257 melanoma = test system: UACC-257 melanoma
A498 renal = test system: A498 renal
MOLT-4 leukemia = test system: MOLT-4 leukemia
OVCAR-8 ovarian = test system: OVCAR-8 ovarian
NCI-H23 lung = test system: NCI-H23 lung
IGROV1 ovarian = test system: IGROV1 ovarian
ACHN renal = test system: ACHN renal
COLO 205 colon = test system: COLO 205 colon
HCC-2998 colon = test system: HCC-2998 colon
NCI-H460 NSCLC = test system: NCI-H460 NSCLC
M14 melanoma = test system: M14 melanoma
OVCAR-5 ovarian = test system: OVCAR-5 ovarian
SF-268 CNS = test system: SF-268 CNS
SK-MEL-5 melanoma = test system: SK-MEL-5 melanoma
T-47D breast = test system: T-47D breast
MDA-MB-231 breast = test system: MDA-MB-231 breast
MALME-3M melanoma = test system: MALME-3M melanoma
SW-620 colon = test system: SW-620 colon
HL-60(TB) leukemia = test system: HL-60(TB) leukemia
UO-31 renal = test system: UO-31 renal

COc1ccc(F)cc1-c1ccnc2[nH]c(C3=CCN(C4CCC(CC(=O)O)CC4)CC3)cc12 (centres undefined) was tested, and the GI50 ([…]-0 renal) was 82.4 nM, the TGI (786-0 renal) was 266 nM and the GI50 (CAKI-1 renal) was 111 nM. For the same compound, the TGI (CAKI-1 renal) was 465 nM, the GI50 (KM12 colon) was 28.9 nM and the TGI (KM12 colon) was 240 nM. It also gave a GI50 (SNB-75 CNS) of 48.3 nM, a TGI (SNB-75 CNS) of 172 nM and a GI50 (HS 578T breast) of 19 nM. For the same compound, the TGI (HS 578T breast) was 55.7 nM, the GI50 (NCI-H322M lung) was 113 nM and the TGI (NCI-H322M lung) was 367 nM. It also gave a TGI (SR leukemia) of less than 14.1 nM, a GI50 (BT-549 breast) of 53.4 nM and a TGI (BT-549 breast) of 145 nM. The GI50 (UACC-62 melanoma) was less than 16.4 nM, the TGI (UACC-62 melanoma) was 87.5 nM and the GI50 (OVCAR-3 ovarian) was 33.4 nM. For the same compound, the TGI (OVCAR-3 ovarian) was 183 nM, the GI50 (CCRF-CEM leukemia) was 21.8 nM and the TGI (CCRF-CEM leukemia) was 57.8 nM. The GI50 (SF-295 CNS) was 171 nM, the TGI (SF-295 CNS) was 456 nM and the GI50 (NCI/ADR-RES ovarian) was 1220 nM. For the same compound, the TGI (NCI/ADR-RES ovarian) was 4590 nM, the GI50 (NCI-H522 lung) was 131 nM and the TGI (NCI-H522 lung) was 306 nM. It also gave a GI50 (LOX IMVI melanoma) of 33.6 nM, a TGI (LOX IMVI melanoma) of 141 nM and a GI50 (DU-145 prostate) of 115 nM. For the same compound, the TGI (DU-145 prostate) was 1820 nM, the GI50 (HT29 colon) was 184 nM and the TGI (HT29 colon) was 606 nM. The GI50 (NCI-H226 lung) was 116 nM, the TGI (NCI-H226 lung) was 451 nM and the GI50 (MCF7 breast) was 31.1 nM. The TGI (MCF7 breast) was 12000 nM, the GI50 (MDA-MB-435 melanoma) was 130 nM and the TGI (MDA-MB-435 melanoma) was 411 nM. The GI50 (SK-OV-3 ovarian) was 398 nM, the TGI (SK-OV-3 ovarian) was greater than 25900 nM and the GI50 (SK-MEL-28 melanoma) was 39.1 nM. The TGI (SK-MEL-28 melanoma) was 202 nM, the GI50 (MDA-MB-468 breast) was 34.1 nM and the TGI (MDA-MB-468 breast) was 118 nM. The GI50 (U251 glioblastoma) was 142 nM, the TGI (U251 glioblastoma) was 490 nM and the GI50 (HOP-62 NSCLC) was 52.4 nM. For the same compound, the TGI (HOP-62 NSCLC) was 194 nM, the GI50 (K-562 leukemia) was 136 nM and the TGI (K-562 leukemia) was 521 nM. It also gave a GI50 (PC-3 prostate) of 124 nM, a TGI (PC-3 prostate) of 520 nM and a GI50 (EKVX NSCLC) of 150 nM. It also gave a TGI (EKVX NSCLC) of 437 nM, a GI50 (RPMI-8226 leukemia) of 42.2 nM and a TGI (RPMI-8226 leukemia) of 138 nM. It also gave a GI50 (SNB-19 CNS) of 78.7 nM, a TGI (SNB-19 CNS) greater than 68300 nM and a GI50 (HCT-15 colon) of 63.7 nM. The TGI (HCT-15 colon) was 2320 nM, the GI50 (SK-MEL-2 melanoma) was 49.3 nM and the TGI (SK-MEL-2 melanoma) was 176 nM. For the same compound, the GI50 (OVCAR-4 ovarian) was 158 nM, the TGI (OVCAR-4 ovarian) was 492 nM and the GI50 (HOP-92 NSCLC) was 94.1 nM. For the same compound, the GI50 (RXF 393 renal) was 18.3 nM, the TGI (RXF 393 renal) was 53.7 nM and the GI50 (SF-539 CNS) was 104 nM. It also gave a TGI (SF-539 CNS) of 277 nM, a GI50 (SN12C renal) of 59.7 nM and a TGI (SN12C renal) of 282 nM. For the same compound, the GI50 (UACC-257 melanoma) was 138 nM, the TGI (UACC-257 melanoma) was 288 nM and the GI50 (A498 renal) was 86.4 nM. It also gave a GI50 (MOLT-4 leukemia) of 36.6 nM, a TGI (MOLT-4 leukemia) of 121 nM and a GI50 (OVCAR-8 ovarian) of 54.6 nM. The TGI (OVCAR-8 ovarian) was 238 nM, the GI50 (NCI-H23 lung) was 49.5 nM and the TGI (NCI-H23 lung) was 195 nM. The GI50 (IGROV1 ovarian) was 77.1 nM, the TGI (IGROV1 ovarian) was greater than 100000 nM and the GI50 (ACHN renal) was 156 nM. It also gave a GI50 (COLO 205 colon) of 33.6 nM, a TGI (COLO 205 colon) of 188 nM and a GI50 (HCC-2998 colon) of 110 nM. For the same compound, the TGI (HCC-2998 colon) was 432 nM, the GI50 (NCI-H460 NSCLC) was 63.4 nM and the TGI (NCI-H460 NSCLC) was 183 nM. The GI50 (M14 melanoma) was 87.2 nM, the TGI (M14 melanoma) was 304 nM and the GI50 (OVCAR-5 ovarian) was 115 nM. For the same compound, the TGI (OVCAR-5 ovarian) was 31600 nM, the GI50 (SF-268 CNS) was 22.3 nM and the TGI (SF-268 CNS) was 84.4 nM. The GI50 (SK-MEL-5 melanoma) was 48.7 nM, the TGI (SK-MEL-5 melanoma) was 156 nM and the GI50 (T-47D breast) was 72 nM. The GI50 (MDA-MB-231 breast) was 70.1 nM, the TGI (MDA-MB-231 breast) was 362 nM and the GI50 (MALME-3M melanoma) was 63 nM. For the same compound, the TGI (MALME-3M melanoma) was 197 nM, the GI50 (SW-620 colon) was 62.3 nM and the TGI (SW-620 colon) was 588 nM. For the same compound, the GI50 (HL-60(TB) leukemia) was 15.1 nM, the TGI (HL-60(TB) leukemia) was 32.5 nM and the GI50 (UO-31 renal) was 102 nM. For the same compound, the TGI (UO-31 renal) was 691 nM.

Work on CC[C@@H](C(=O)[C@@H](C)[C@@H](O)[C@H](C)[C@@H]1O[C@@H]([C@@H](CC)C(=O)O)CC[C@@H]1C)[C@H]1O[C@]2(C=C[C@@H](O)[C@]3(CC[C@@](C)([C@H]4CC[C@](O)(CC)[C@H](C)O4)O3)O2)[C@H](C)C[C@@H]1C yielded a GI50 (SR leukemia) of less than 10 nM, a TGI (SR leukemia) of less than 10 nM and a GI50 (OVCAR-3 ovarian) of less than 10 nM. For the same compound, the TGI (OVCAR-3 ovarian) was less than 10 nM, the GI50 (NCI/ADR-RES ovarian) was 167 nM and the TGI (NCI/ADR-RES ovarian) was 2110 nM. For the same compound, the GI50 (MCF7 breast) was less than 10 nM, the TGI (MCF7 breast) was 278 nM and the GI50 (HCT-15 colon) was 299 nM. It also gave a TGI (HCT-15 colon) of 1190 nM, a GI50 (RXF 393 renal) of less than 10 nM and a TGI (RXF 393 renal) of less than 10 nM. It also gave a GI50 (SN12C renal) of less than 10 nM, a TGI (SN12C renal) of 1760 nM and a GI50 (ACHN renal) of 416 nM. It also gave a TGI (ACHN renal) of 13600 nM, a GI50 (HL-60(TB) leukemia) of less than 10 nM and a TGI (HL-60(TB) leukemia) of less than 10 nM. For the same compound, the GI50 (UO-31 renal) was 157 nM and the TGI (UO-31 renal) was 759 nM.

From PubChem BioAssay (NCI)
